# Laboratory results published in paper PMC7184563 (Journal of Medicinal Chemistry, 2020).
# Key:
# [1] = type: in vivo, mouse; details: 1 mg/kg iv and 5 mg/kg po, after dosing and 24 h after dose
# [2] = PK study in SCID mouse, po; type: in vivo; details: 15 mg/kg po
# [3] = target: BCL6 levels in tumor (Homo sapiens, UniProt P41182); experiment: PK/PD study in OCI-Ly1 DLBCL xenograft model; details: single dose 15 mg/kg po
# [4] = target: BCL6 BTB (Homo sapiens, UniProt P41182); experiment: biochemical; details: BCL6 IC50 (FP), geometric mean
# [5] = HPLC solubility assay; type: physicochemical; details: kinetic solubility by HPLC in PBS buffer, 1% DMSO, pH 7.4
# [6] = PAMPA permeability; type: in vitro ADME
# [7] = Microsomal clearance; type: in vitro ADME
# [8] = target: T1, BCL6 (Homo sapiens, UniProt P41182); type: cell-based; details: SU-DHL-4
# [9] = Microsomal clearance assay, mouse liver microsomes; type: in vitro ADME
# [10] = target: T1, BCL6; experiment: Western blot of BCL6 protein levels, SU-DHL-4 cells; type: cell-based; details: 4 h at 37 °C
# [11] = target: T1, BCL6; experiment: Western blot of BCL6 protein levels, OCI-Ly1 cells; type: cell-based; details: 4 h at 37 °C
structure (smiles),measurement,setting,value
"C[C@@H]1CN(c2ncc(Cl)c(Nc3ccc4c(c3)n(CCC(C)(C)O)c(=O)n4C)n2)C[C@H](C)C1(F)F [Compound 1, 5-((5-Chloro-2-((3R,5S)-4,4-difluoro-3,5-dimethylpiperidin-1-yl)pyrimidin-4-yl)amino)-3-(3-hydroxy-3-methylbutyl)-1-methyl-1,3-dihydro-2H-benzo[d]imidazol-2-one]",appearance of mice after dosing,[1],appeared normal
same,time mean total blood concentration above the desired concentration,[2],approximately 10 h
same,free concentration that leads to degradation of BCL6 in tumor,[3],> 1 nM
same,time of maximal effect on tumor BCL6,[3],~4 h
same,levels of BCL6 in the tumor,"[3]; OCI-Ly1 xenograft, up to 10 h after dosing",clear decrease in levels of BCL6 in the tumor
same,adverse events,[3]; SCID mice,No visible adverse events were observed
N#Cc1c(NCc2ccccc2)ccnc1Cl [Compound 2],IC50,[4],~100 µM
Cn1c(=O)n(C)c2cc(Nc3cc(SCc4ccccc4)ncn3)ccc21 [Compound 3],IC50,[4],~100 µM
"Cn1c(=O)n(C)c2cc(Nc3ccnc(Cl)c3C#N)ccc21 [Compound 6, 2-Chloro-4-((1,3-dimethyl-2-oxo-2,3-dihydro-1H-benzo[d]imidazol-5-yl)amino)nicotinonitrile]","Aq. sol. (HPLC, shown in parentheses)",[5],(16) μM
same,PAMPA permeability (in words),[6],high PAMPA permeability
same,microsomal clearance (in words),[7],Low microsomal clearance
"Cn1c(=O)n(CCC(C)(C)O)c2cc(Nc3ccnc(Cl)c3C#N)ccc21 [Compound 17a, 2-Chloro-4-((3-(3-hydroxy-3-methylbutyl)-1-methyl-2-oxo-2,3-dihydro-1H-benzo[d]imidazol-5-yl)amino)nicotinonitrile]","Aq. sol. (HPLC, shown in parentheses)",[5],(25) μM
"CC1CCCN(c2ncc(Cl)c(Nc3ccc4c(c3)n(CCC(C)(C)O)c(=O)n4C)n2)C1 (centres unmarked) [Compound 24a, 5-((5-Chloro-2-(3-methylpiperidin-1-yl)pyrimidin-4-yl)amino)-3-(3-hydroxy-3-methylbutyl)-1-methyl-1,3-dihydro-2H-benzo[d]imidazol-2-one]",BCL6 degradation in the IF assay (in words),[8],identified as degraders
same,metabolism in mouse microsomes (in words),[9],rapid metabolism
"C[C@@H]1C[C@H](C)CN(c2ncc(Cl)c(Nc3ccc4c(c3)n(CCC(C)(C)O)c(=O)n4C)n2)C1 [Compound 24b, 5-((5-Chloro-2-((3S,5R)-3,5-dimethylpiperidin-1-yl)pyrimidin-4-yl)amino)-3-(3-hydroxy-3-methylbutyl)-1-methyl-1,3-dihydro-2H-benzo[d]imidazol-2-one]",BCL6 degradation in the IF assay (in words),[8],identified as degraders
same,metabolism in mouse microsomes (in words),[9],rapid metabolism
same,"BCL6 protein levels by Western blot, SU-DHL-4",[10],concentration-dependent reduction in BCL6 protein levels
same,"BCL6 protein levels by Western blot, OCI-Ly1",[11],concentration-dependent reduction in BCL6 protein levels
"C[C@@H]1CN(c2ncc(Cl)c(Nc3ccc4c(c3)n(CCC(C)(C)O)c(=O)n4C)n2)C[C@H](C)O1 [Compound 25a, 5-((5-Chloro-2-((2R,6S)-2,6-dimethylmorpholino)pyrimidin-4-yl)amino)-3-(3-hydroxy-3-methylbutyl)-1-methyl-1,3-dihydro-2H-benzo[d]imidazol-2-one]",BCL6 degradation in the IF assay (in words),[8],not capable of inducing BCL6 degradation
"C[C@@H]1CN(c2ncc(Cl)c(Nc3ccc4c(c3)n(CCC(C)(C)O)c(=O)n4C)n2)C[C@H](C)N1C [Compound 25c, 5-((5-Chloro-2-((3S,5R)-3,4,5-trimethylpiperazin-1-yl)pyrimidin-4-yl)amino)-3-(3-hydroxy-3-methylbutyl)-1-methyl-1,3-dihydro-2H-benzo[d]imidazol-2-one]",BCL6 degradation in the IF assay (in words),[8],not capable of inducing BCL6 degradation
"C[C@@H]1C[C@H](C)CN(c2cc(Nc3ccc4c(c3)n(CCC(C)(C)O)c(=O)n4C)c(Cl)cn2)C1 [Compound 26b, 5-((5-Chloro-2-((3S,5R)-3,5-dimethylpiperidin-1-yl)pyridin-4-yl)amino)-3-(3-hydroxy-3-methylbutyl)-1-methyl-1,3-dihydro-2H-benzo[d]imidazol-2-one]",BCL6 degradation in the IF assay (in words),[8],identified as degraders
"COCC1CN(c2ncc(Cl)c(Nc3ccc4c(c3)n(CCC(C)(C)O)c(=O)n4C)n2)CCC1(F)F (centres unmarked) [Compound 27f, 5-((5-Chloro-2-(4,4-difluoro-3-(methoxymethyl)piperidin-1-yl)pyrimidin-4-yl)amino)-3-(3-hydroxy-3-methylbutyl)-1-methyl-1,3-dihydro-2H-benzo[d]imidazol-2-one]",BCL6 degradation in the IF assay (in words),[8],reduced degradation
"Cn1c(=O)n(CCC(C)(C)O)c2cc(Nc3nc(N4CCCC(C#N)C4)ncc3Cl)ccc21 (centres unmarked) [Compound 27g, 1-(5-Chloro-4-((3-(3-hydroxy-3-methylbutyl)-1-methyl-2-oxo-2,3-dihydro-1H-benzo[d]imidazol-5-yl)amino)pyrimidin-2-yl)piperidine-3-carbonitrile]",BCL6 degradation in the IF assay (in words),[8],did not enable degradation
"Cn1c(=O)n(CCC(C)(C)O)c2cc(Nc3nc(N4CCC(C(F)(F)F)CC4)ncc3Cl)ccc21 [Compound 27h, 5-((5-Chloro-2-(4-(trifluoromethyl)piperidin-1-yl)pyrimidin-4-yl)amino)-3-(3-hydroxy-3-methylbutyl)-1-methyl-1,3-dihydro-2H-benzo[d]imidazol-2-one]",BCL6 degradation in the IF assay (in words),[8],loss of degradation activity
"Cn1c(=O)n(CCC(C)(C)O)c2cc(Nc3nc(N4CC5CCC(C4)C5(F)F)ncc3Cl)ccc21 [Compound 28a, 5-((5-Chloro-2-(8,8-difluoro-3-azabicyclo[3.2.1]octan-3-yl)pyrimidin-4-yl)amino)-3-(3-hydroxy-3-methylbutyl)-1-methyl-1,3-dihydro-2H-benzo[d]imidazol-2-one]",BCL6 degradation in the IF assay (in words),[8],loss of degradation activity
"Cn1c(=O)n(CCC(C)(C)O)c2cc(Nc3nc(N4C5CCC4CC(F)(F)C5)ncc3Cl)ccc21 [Compound 28b, 5-((5-Chloro-2-(3,3-difluoro-8-azabicyclo[3.2.1]octan-8-yl)pyrimidin-4-yl)amino)-3-(3-hydroxy-3-methylbutyl)-1-methyl-1,3-dihydro-2H-benzo[d]imidazol-2-one]",BCL6 degradation in the IF assay (in words),[8],loss of degradation activity
